The source of these data is ChEMBL document CHEMBL4325853, “Design, synthesis and antibacterial evaluation of 2,4-disubstituted-6-thiophenyl-pyrimidines” (Eur J Med Chem, 2019).

SMILES strings stand for the structures. Calls of active or inactive are those of the source. The calls are words filed in the database; no cut-off is given here.

Assay [1] concerns Staphylococcus aureus. Kind of assay: Ratio of MIC for Staphylococcus aureus ATCC 29213 after and before 5 serial passages. The format is functional.
Assay [2] deals with Staphylococcus aureus. Put plainly: Ratio of MIC for Staphylococcus aureus ATCC 29213 after and before 5 to 21 serial passages. It is filed as functional.
Another assay relates to Bacillus subtilis. Kind of assay: Induction of morphological changes in Bacillus subtilis 168 assessed as cell length at 2 ug/ml after 4.5 hrs by phase contrast microscopic analysis (reference value: 5 to 10 micrometer). It is filed as functional, subsp. subtilis str. 168.
Assay [3] deals with T1, Cell division protein FtsZ (Staphylococcus aureus) (UniProt P0A031).
T1 sequence (whole entry): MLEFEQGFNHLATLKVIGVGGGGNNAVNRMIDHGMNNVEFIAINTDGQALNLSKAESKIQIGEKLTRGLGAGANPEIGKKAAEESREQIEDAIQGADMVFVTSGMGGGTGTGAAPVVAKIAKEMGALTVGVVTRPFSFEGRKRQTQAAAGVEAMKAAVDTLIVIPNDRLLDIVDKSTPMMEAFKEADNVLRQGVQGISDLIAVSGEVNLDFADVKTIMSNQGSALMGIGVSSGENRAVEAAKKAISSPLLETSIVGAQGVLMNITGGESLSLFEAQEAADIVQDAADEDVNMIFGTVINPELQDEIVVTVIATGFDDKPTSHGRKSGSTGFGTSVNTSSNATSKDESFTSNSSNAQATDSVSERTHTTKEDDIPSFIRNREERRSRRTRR
Kind of assay: Inhibition of recombinant Staphylococcus aureus FtsZ polymerization assessed as reduction in size of protein polymers at 4 ug/ml preincubated for 10 mins followed by GTP addition and measured after 15 mins by transmission electron microscopic method.

The target in assay [4] is T1, Cell division protein FtsZ (Staphylococcus aureus). Put plainly: Inhibition of recombinant Staphylococcus aureus FtsZ GTPase activity assessed as reduction in inorganic phosphate formation at 16 ug/ml after 30 mins by colorimetric method relative to control.
For assay [5] the target is unchanged. Put plainly: Inhibition of recombinant Staphylococcus aureus FtsZ polymerization assessed as reduction in bundling of protein protofilaments at 4 ug/ml preincubated for 10 mins followed by GTP addition and measured after 15 mins by transmission electron microscopic method.
Assay [6] has the same target. Put plainly: Inhibition of recombinant Staphylococcus aureus FtsZ GTPase activity assessed as reduction in inorganic phosphate formation at 2 ug/ml after 30 mins by colorimetric method relative to control.

Take `COc1cccc(OC)c1C(=O)N[C@@H]1C(=O)N2[C@@H]1SC(C)(C)[C@@H]2C(=O)O` [METHICILLIN]: the Ratio in the assay on Staphylococcus aureus [1] turned out to be 4; in the assay on Staphylococcus aureus [2], 32.

With `CC(C)c1ccc(CN2CCCN(CCc3cc(-c4cccs4)nc(-c4ccncc4)n3)CC2)cc1`, the Activity in the assay with Bacillus subtilis was greater than 20 um. Also, the inhibition entry in assay [3] and in assay [5] was “Active” in each case. In addition, the values for the inhibition in assay [4] and in assay [6] were 70% and 25%, respectively.
